Columns and labels:
[1] = molecular target: T1, Sodium-dependent dopamine transporter (Rattus norvegicus, UniProt P23977); assay: Inhibitory activity against [3H]dopamine uptake in rat striatal tissue; type: functional, tissue-based, Striatum
[2] = molecular target: Sodium-dependent dopamine transporter (Rattus norvegicus) (UniProt P23977)
Description: The compound Hill coefficient value determined for WIN-Binding

[3] = molecular target: T1, Sodium-dependent dopamine transporter; assay: Inhibition of [3H]WIN-35428 binding to dopamine transporter using rat striatal tissue; type: tissue-based, Striatum

T1 sequence (P23977 whole entry): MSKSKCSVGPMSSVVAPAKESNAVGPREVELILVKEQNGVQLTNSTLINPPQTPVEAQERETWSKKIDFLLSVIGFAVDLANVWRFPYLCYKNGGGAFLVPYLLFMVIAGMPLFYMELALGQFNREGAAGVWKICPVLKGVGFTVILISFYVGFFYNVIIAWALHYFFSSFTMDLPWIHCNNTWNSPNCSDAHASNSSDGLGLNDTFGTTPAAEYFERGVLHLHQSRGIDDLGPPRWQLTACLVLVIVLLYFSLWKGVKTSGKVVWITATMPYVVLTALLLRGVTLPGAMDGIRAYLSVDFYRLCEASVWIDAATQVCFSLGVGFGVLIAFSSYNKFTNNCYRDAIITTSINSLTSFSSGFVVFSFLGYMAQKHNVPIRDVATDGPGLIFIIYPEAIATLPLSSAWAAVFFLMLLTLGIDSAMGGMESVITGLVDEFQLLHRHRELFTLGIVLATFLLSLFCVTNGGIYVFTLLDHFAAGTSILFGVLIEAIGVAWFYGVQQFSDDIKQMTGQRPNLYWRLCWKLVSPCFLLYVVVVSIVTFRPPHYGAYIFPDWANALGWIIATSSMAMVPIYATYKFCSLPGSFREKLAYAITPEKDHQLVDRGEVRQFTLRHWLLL
Sequence of Sodium-dependent dopamine transporter (Rattus norvegicus) (P23977 whole entry): as above

Row | Structure (SMILES) | IC50 [1] | Hill coefficient [2] | IC50 [3]
1 | COC(=O)C(c1ccccc1OC)C1CCCCN1 (single isomer, unassigned) | 290000 nM | 0.87 | 139000 nM
2 | COC(=O)[C@@H](c1ccc(I)cc1)[C@@H]1CCCCN1 | 64.5 nM | 1.1 | 14 nM
3 | COC(=O)[C@@H](c1cccc(O)c1)[C@@H]1CCCCN1 | 790 nM | 1.09 | 321 nM
4 | COC(=O)[C@@H](c1ccccc1O)[C@@H]1CCCCN1 | 35800 nM | 1.04 | 
5 | COC(=O)[C@@H](c1cccc(C)c1)[C@@H]1CCCCN1 | 100 nM | 1.01 | 21.4 nM
6 | COC(=O)C(c1ccccc1Cl)C1CCCCN1 (single isomer, unassigned) | 61000 nM | 0.92 | 52500 nM
7 | COC(=O)[C@@H](c1ccccc1Cl)[C@@H]1CCCCN1 | 2660 nM | 0.98 | 1950 nM
8 | COC(=O)[C@@H](c1ccccc1)[C@@H]1CCCCN1 |  | 0.9 | 
9 | COC(=O)[C@@H](c1ccc(Br)cc1)[C@@H]1CCCCN1 | 26.3 nM | 1.15 | 6.9 nM
10 | COC(=O)[C@@H](c1ccc(N)cc1)[C@@H]1CCCCN1 | 115 nM | 0.96 | 34.6 nM
11 | COC(=O)C(c1ccc(C(C)(C)C)cc1)C1CCCCN1 (single isomer, unassigned) |  | 1.1 | 
12 | COC(=O)[C@@H](c1ccc(C(C)(C)C)cc1)[C@@H]1CCCCN1 |  | 1.12 | 
13 | COC(=O)[C@@H](c1cccc(Br)c1)[C@@H]1CCCCN1 | 12.8 nM | 1.14 | 4.2 nM
14 | COC(=O)C(c1cccc(Cl)c1)C1CCCCN1 (single isomer, unassigned) | 1540 nM | 1.03 | 378 nM
15 | COC(=O)[C@@H](c1ccc(O)cc1)[C@@H]1CCCCN1 | 340 nM | 1.07 | 98 nM
16 | COC(=O)[C@@H](c1ccccc1F)[C@@H]1CCCCN1 | 2900 nM | 0.9 | 1420 nM
17 | COC(=O)[C@@H](c1ccc(Cl)cc1)[C@@H]1CCCCN1 | 73.8 nM | 1.17 | 20.6 nM
18 | COC(=O)[C@H]1[C@@H](OC(=O)c2ccccc2)C[C@@H]2CC[C@H]1N2C |  | 1.03 | 
19 | COC(=O)[C@@H](c1ccccc1Br)[C@@H]1CCCCN1 | 3410 nM | 0.93 | 1870 nM
20 | COC(=O)[C@@H](c1ccc([N+](=O)[O-])cc1)[C@@H]1CCCCN1 | 1610 nM | 1.17 | 494 nM
21 | COC(=O)[C@@H](c1cccc(F)c1)[C@@H]1CCCCN1 | 160 nM | 0.85 | 40.5 nM
22 | COC(=O)[C@@H](c1ccc(Cl)c(Cl)c1)[C@@H]1CCCCN1 | 7 nM | 2.07 | 5.3 nM
23 | COC(=O)[C@@H](c1ccc(OC)c(OC)c1)[C@@H]1CCCCN1 | 1760 nM | 1.12 | 810 nM
24 | COC(=O)[C@@H](c1cccc(N)c1)[C@@H]1CCCCN1 | 578 nM | 1.06 | 265 nM
25 | COC(=O)C(c1ccccc1Br)C1CCCCN1 (single isomer, unassigned) | 59000 nM | 1.06 | 38100 nM
26 | COC(=O)[C@@H](c1ccc(C)cc1)[C@@H]1CCCCN1 | 126 nM | 1.05 | 33 nM
27 | COC(=O)[C@@H](c1ccc(F)cc1)[C@@H]1CCCCN1 | 142 nM | 0.97 | 35 nM
28 | COC(=O)[C@@H](c1cccc(Cl)c1)[C@@H]1CCCCN1 | 23 nM | 0.95 | 5.1 nM
29 | COC(=O)[C@@H](c1ccccc1OC)[C@@H]1CCCCN1 | 81000 nM | 0.94 | 
